Patent US10875852B2, “Heteroaromatic compounds as BTK inhibitors” (Boehringer Ingelheim International GmbH, priority 2012, dated 2020)

Biological target: full-length human His-tagged BTK (Homo sapiens (Human), UniProt Q06187)
Experiment: BTK HTRF assay (Cisbio KinEASE-TK)
Format: biochemical
Conditions: 6 nM BTK, 30 uM ATP, 15 min preincubation
Description: An HTRF assay (Cisbio KinEASE-TK cat #62TK0PEC) was performed to quantitate the ability of test compounds to inhibit BTK mediated phosphorylation of substrate. Assays were assembled in 384 well plates where 6 nM of full-length human His-tagged BTK (Life Technologies cat # PV3587) and test compound at varying concentrations were preincubated for 15 minutes at 28° C. Then, 1 uM of TK substrate-biotin and 30 uM ATP were added and incubated for an additional 30 minutes at 28° C.

Chain of full-length human His-tagged BTK (Q06187 whole entry): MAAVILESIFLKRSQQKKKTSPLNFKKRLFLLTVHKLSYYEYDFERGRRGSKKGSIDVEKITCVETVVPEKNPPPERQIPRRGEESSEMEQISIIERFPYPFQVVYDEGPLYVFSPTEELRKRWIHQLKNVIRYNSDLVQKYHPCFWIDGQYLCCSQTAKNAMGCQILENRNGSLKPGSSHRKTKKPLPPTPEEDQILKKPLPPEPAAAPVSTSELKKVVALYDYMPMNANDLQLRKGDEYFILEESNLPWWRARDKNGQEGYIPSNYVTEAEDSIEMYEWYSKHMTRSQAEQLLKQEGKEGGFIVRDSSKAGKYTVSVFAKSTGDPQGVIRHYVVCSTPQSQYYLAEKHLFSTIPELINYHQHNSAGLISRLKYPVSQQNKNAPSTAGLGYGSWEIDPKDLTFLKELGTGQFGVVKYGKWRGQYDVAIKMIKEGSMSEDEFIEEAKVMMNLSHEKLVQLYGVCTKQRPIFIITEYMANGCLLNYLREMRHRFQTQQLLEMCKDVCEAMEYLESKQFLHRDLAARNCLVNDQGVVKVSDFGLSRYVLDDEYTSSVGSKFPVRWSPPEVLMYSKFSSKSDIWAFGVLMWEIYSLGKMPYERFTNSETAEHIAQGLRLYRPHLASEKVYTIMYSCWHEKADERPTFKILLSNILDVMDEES

Question: For C=CC(=O)N1CC[C@]2(C1)C[C@H](n1nc(-c3ccc(OC)cc3Cl)c(C(N)=O)c1N)C2 [Example 159], which IC50 is on record?
Answer: 20 nM
